One assay relates to Escherichia coli. In words: Antibacterial activity against Escherichia coli ATCC 25922 incubated at 37 degC for 20 hrs by standard broth microdilution method. It counts as functional. Particulars: ATCC 25922, 20 h. On the technique in general: Dilution methods test growth across graded concentrations, often in twofold steps.
The subject of assay [1] is Staphylococcus aureus. Nature of the assay: Antibacterial activity against Staphylococcus aureus ATCC 25923 incubated at 37 degC for 20 hrs by standard broth microdilution method. It is filed as functional. Particulars: ATCC 25923, 20 h.
In assay [2] the test system is Klebsiella pneumoniae. In words: Antibacterial activity against Klebsiella pneumoniae CMCC 46117 incubated at 37 degC for 20 hrs by agar dilution method. It counts as functional. To be noted: CMCC 46117, 20 h.
In assay [3] the test system is Pseudomonas aeruginosa. In words: Antibacterial activity against Pseudomonas aeruginosa ATCC 9027 incubated at 37 degC for 20 hrs by agar dilution method. It is filed as functional. To be noted: ATCC 9027, 20 h. (Agar dilution tests growth on a series of plates holding different concentrations.)
In assay [4] the test system is Klebsiella pneumoniae. In words: Antibacterial activity against Klebsiella pneumoniae ATCC 700603 incubated at 37 degC for 20 hrs by agar dilution method. It counts as functional. Particulars: ATCC 700603, 20 h.
The subject of assay [5] is Pseudomonas aeruginosa. Nature of the assay: Antibacterial activity against Pseudomonas aeruginosa ATCC 27853 incubated at 37 degC for 20 hrs by agar dilution method. It is filed as functional. Particulars: ATCC 27853, 20 h.
The subject of assay [6] is Klebsiella pneumoniae. Nature of the assay: Antibacterial activity against Klebsiella pneumoniae ATCC 4352 incubated at 37 degC for 20 hrs by agar dilution method. It is filed as functional. To be noted: ATCC 4352, 20 h.
Assay [7] relates to Pseudomonas aeruginosa. In words: Antibacterial activity against Pseudomonas aeruginosa CMCC 10104 incubated at 37 degC for 20 hrs by agar dilution method. It counts as functional. Particulars: CMCC 10104, 20 h.
For assay [8], the system named is Staphylococcus aureus. In words: Antibacterial activity against Staphylococcus aureus ATCC 33591 incubated at 37 degC for 20 hrs by agar dilution method. Particulars: ATCC 33591, 20 h. It counts as functional.
In the next assay the test system is Streptococcus pyogenes. Nature of the assay: Antibacterial activity against Streptococcus pyogenes ATCC 19615 incubated at 37 degC for 20 hrs by agar dilution method. It is filed as functional. To be noted: ATCC 19615, 20 h.
The subject of assay [9] is Staphylococcus epidermidis. Nature of the assay: Antibacterial activity against Staphylococcus epidermidis ATCC 12228 incubated at 37 degC for 20 hrs by agar dilution method. It is filed as functional. To be noted: ATCC 12228, 20 h.
The subject of the next assay is Streptococcus mutans. Nature of the assay: Antibacterial activity against Streptococcus mutans. It counts as functional.
Assay [10] deals with Staphylococcus aureus. Nature of the assay: Antibacterial activity against Staphylococcus aureus ATCC 29213 incubated at 37 degC for 20 hrs by agar dilution method. It counts as functional. To be noted: ATCC 29213, 20 h.
For assay [11], the system named is Staphylococcus aureus. In words: Antibacterial activity against Staphylococcus aureus ATCC 43300 incubated at 37 degC for 20 hrs by agar dilution method. To be noted: ATCC 43300, 20 h. It is filed as functional.
Assay [12] concerns Staphylococcus aureus. Nature of the assay: Antibacterial activity against Staphylococcus aureus CMCC 26003 incubated at 37 degC for 20 hrs by agar dilution method. It is filed as functional. To be noted: CMCC 26003, 20 h.
Assay [13] has as its system Staphylococcus aureus. Nature of the assay: Antibacterial activity against Staphylococcus aureus. It is filed as functional.
The test system of the next assay is Candida albicans. In words: Antimicrobial activity against Candida albicans. It counts as functional.
Assay [14] concerns Staphylococcus epidermidis. In words: Antibacterial activity against Staphylococcus albus AS1.3374 incubated at 37 degC for 20 hrs by agar dilution method. It counts as functional. To be noted: AS1.3374, 20 h.
In assay [15] the test system is Enterococcus faecalis. Nature of the assay: Antibacterial activity against Enterococcus faecalis ATCC 33186 incubated at 37 degC for 20 hrs by agar dilution method. It counts as functional. Particulars: ATCC 33186, 20 h.
Assay [16] concerns Staphylococcus aureus. In words: Antibacterial activity against Staphylococcus aureus ATCC 6538 incubated at 37 degC for 20 hrs by agar dilution method. Particulars: ATCC 6538, 20 h. It counts as functional.
Assay [17] relates to Enterococcus faecalis. In words: Antibacterial activity against Enterococcus faecalis ATCC 35667 incubated at 37 degC for 20 hrs by agar dilution method. It counts as functional. Particulars: ATCC 35667, 20 h.
Assay [18] has as its system Staphylococcus aureus. In words: Bactericidal activity against Staphylococcus aureus ATCC 25923 at 4 times MIC incubated for 24 hrs by time kill curve assay. It counts as functional, organism-based.
The test system of assay [19] is Staphylococcus aureus. In words: Bacteriostatic activity against Staphylococcus aureus ATCC 25923 at 1 times MIC incubated for 24 hrs by time kill curve assay. It is filed as functional, organism-based.
Assay [20] has as its system Staphylococcus aureus. In words: Induction of cell wall destruction in Staphylococcus aureus ATCC 25923 at 1 times MIC incubated for 0.5 hrs Gram staining based assay. It is filed as functional, organism-based.
Assay [21] relates to Staphylococcus aureus. In words: Induction of cell wall destruction in Staphylococcus aureus ATCC 25923 at 4 times MIC incubated for 1 hr Gram staining based assay. It counts as functional, organism-based.

Each structure is given as a SMILES string. ≈ marks a conversion by molar mass, not a printed value. Calls of active or inactive are those of the source. No cut-off for these calls is given here.

For orientation: MIC90 means an inhibitory concentration at the 90% level, which refers to growth in some studies and to a panel of isolates in others. A low value points to greater potency. For `C=CCc1cc(CN2CCC(NC(=O)OC(C)(C)C)CC2)c(O)c(-c2ccc(O)c(CC=C)c2)c1`, the MIC90 in the assay with Escherichia coli and in the assay with Staphylococcus aureus [1] was above 256 µg/mL throughout.

As to `C=CCc1cc(CN2CCCC(C)C2)c(O)c(-c2ccc(O)c(CC=C)c2)c1` (stereo not given), the MIC90 against Escherichia coli and against Staphylococcus aureus [1] was above 256 µg/mL in each case.

For `C=CCc1cc(CO)c(O)c(-c2cc(CO)c(O)c(CC=C)c2)c1`, the MIC90 in the assay on Escherichia coli is above 256 µg/mL; in the assay with Staphylococcus aureus [1] it was 64 µg/mL (≈ 196 µM).

As a reminder, the MIC is the lowest concentration found to suppress growth. A low value points to inhibition by little substance. Consider `NC[C@H]1O[C@H](O[C@H]2[C@H](O)[C@@H](O[C@H]3O[C@H](CO)[C@@H](O)[C@H](N)[C@H]3O)[C@H](N)C[C@@H]2N)[C@H](N)C[C@@H]1O` [TOBRAMYCIN], for which the MIC with Klebsiella pneumoniae [2] amounted to 0.25 µg/mL (≈ 0.535 µM); in the assay on Escherichia coli, 0.25 µg/mL (≈ 0.535 µM); in the assay on Pseudomonas aeruginosa [3] it was 0.5 µg/mL (≈ 1.07 µM); with Klebsiella pneumoniae [4], 4 µg/mL (≈ 8.56 µM); in the assay with Pseudomonas aeruginosa [5], 0.25 µg/mL (≈ 0.535 µM); in the assay with Klebsiella pneumoniae [6] it was 1 µg/mL (≈ 2.14 µM). This compound also returned an MIC in the assay with Pseudomonas aeruginosa [7] of 2 µg/mL (≈ 4.28 µM).

As for `C=CCc1ccc(O)c(-c2ccc(O)c(CC=C)c2)c1` [HONOKIOL], the MIC against Staphylococcus aureus [8] is 16 µg/mL (≈ 60.1 µM); against Streptococcus pyogenes, 8 µg/mL (≈ 30 µM); against Klebsiella pneumoniae [2], 32 µg/mL (≈ 120 µM); in [9], 16 µg/mL (≈ 60.1 µM); against Escherichia coli, above 256 µg/mL; against Streptococcus mutans it was 10 µg/mL (≈ 37.5 µM). Also, the MIC was 16 µg/mL (≈ 60.1 µM) against Staphylococcus aureus [10]; 16 µg/mL (≈ 60.1 µM) against Staphylococcus aureus [11]; above 256 µg/mL against Pseudomonas aeruginosa [3]; 16 µg/mL (≈ 60.1 µM) against Staphylococcus aureus [12]; above 256 µg/mL against Klebsiella pneumoniae [4]; 50 µg/mL (≈ 188 µM) in the assay on Staphylococcus aureus [13]. Also, the MIC in the assay on Candida albicans is 32 µg/mL (≈ 120 µM); with Pseudomonas aeruginosa [5], above 256 µg/mL; against Klebsiella pneumoniae [6], 32 µg/mL (≈ 120 µM); in [14], 16 µg/mL (≈ 60.1 µM); in the assay with Pseudomonas aeruginosa [7], above 256 µg/mL; in the assay with Enterococcus faecalis [15] it was 32 µg/mL (≈ 120 µM). The MIC in the assay on Staphylococcus aureus [16] is 16 µg/mL (≈ 60.1 µM); in the assay on Enterococcus faecalis [17] it was 32 µg/mL (≈ 120 µM). Further, the values for the MIC90 against Escherichia coli and against Staphylococcus aureus [1] were above 256 µg/mL and 16 µg/mL (≈ 60.1 µM), respectively.

On to `CC(=O)NC[C@H]1CN(c2ccc(N3CCOCC3)c(F)c2)C(=O)O1` [LINEZOLID], for which the result in the assay on Staphylococcus aureus [18] and in the assay with Staphylococcus aureus [19] was Active. Besides, the MIC in the assay on Streptococcus pyogenes turned out to be 0.5 µg/mL (≈ 1.48 µM); in assay [9], 2 µg/mL (≈ 5.93 µM); in assay [14] it was 2 µg/mL (≈ 5.93 µM). In addition, the MIC90 is above 256 µg/mL against Escherichia coli and 2 µg/mL (≈ 5.93 µM) against Staphylococcus aureus [1].

As for `C=CCc1cc(CN2CCC(N3CCNCC3)CC2)c(O)c(-c2ccc(O)c(CC=C)c2)c1`, the MIC90 is above 256 µg/mL in the assay with Escherichia coli and 32 µg/mL (≈ 71.5 µM) with Staphylococcus aureus [1].

Consider `CN[C@H](CC(C)C)C(=O)N[C@H]1C(=O)N[C@@H](CC(N)=O)C(=O)N[C@H]2C(=O)N[C@H]3C(=O)N[C@H](C(=O)N[C@H](C(=O)O)c4cc(O)cc(O)c4-c4cc3ccc4O)[C@H](O)c3ccc(c(Cl)c3)Oc3cc2cc(c3O[C@@H]2O[C@H](CO)[C@@H](O)[C@H](O)[C@H]2O[C@H]2C[C@](C)(N)[C@H](O)[C@H](C)O2)Oc2ccc(cc2Cl)[C@H]1O` [VANCOMYCIN], for which the result in the assay with Staphylococcus aureus [18], with Staphylococcus aureus [20], in the assay with Staphylococcus aureus [19] and in the assay with Staphylococcus aureus [21] was Active. Also, the MIC90 in the assay on Escherichia coli is above 256 µg/mL; with Staphylococcus aureus [1], 1 µg/mL (≈ 0.69 µM).

For the origin of these results see ChEMBL document CHEMBL4184257, “Design, synthesis and antibacterial evaluation of honokiol derivatives” (2018).
